ChEMBL document CHEMBL3351499, “'Click' glycosylation of peptides through cysteine propargylation and CuAAC” (Bioorg Med Chem, 2014)
Residues, ends and D or L forms follow the SMILES beside them. *: point of attachment. X3 = OC[C@H]1O[C@H](OCCn2cc(C*)nn2)[C@@H](O)[C@@H](O)[C@@H]1O; X4 = OC[C@H]1O[C@@H](OCCn2cc(C*)nn2)[C@H](O)[C@@H](O)[C@@H]1O; X6 = O[C@@H]1[C@@H](O)[C@@H](OCCn2cc(C*)nn2)O[C@H](CF)[C@H]1O; X1 = OC[C@H]1O[C@@H](OCCn2cc(C*)nn2)[C@H](O)[C@@H](O)[C@H]1O; X2 = O[C@@H]1[C@@H](O)[C@H](OCCn2cc(C*)nn2)O[C@H](CF)[C@H]1O; X5 = O[C@@H]1[C@H](O)[C@@H](OCCn2cc(C*)nn2)O[C@H](CF)[C@H]1O

Experiment: Antiplatelet activity in citrated human platelet rich plasma assessed as inhibition of ADP-induced platelet aggregation incubated for 10 mins at 37 degC by light transmission aggregometry
Type: functional

IC50 [µM] | Structure (SMILES)
23 | N=C(N)NCCC[C@H](N)C(=O)NCC(=O)N[C@@H](CC(=O)O)C(=O)N[C@@H](CSCc1cn(CCO[C@@H]2O[C@H](CO)[C@H](O)[C@H](O)[C@H]2O)nn1)C(=O)O (H-RGDC(X1)-OH)
26 | N=C(N)NCCC[C@H](N)C(=O)NCC(=O)N[C@@H](CC(=O)O)C(=O)N[C@@H](CSCc1cn(CCO[C@H]2O[C@H](CF)[C@@H](O)[C@H](O)[C@H]2O)nn1)C(=O)O (H-RGDC(X6)-OH)
66 | N=C(N)NCCC[C@H](N)C(=O)NCC(=O)N[C@@H](CC(=O)O)C(=O)N[C@@H](CSCc1cn(CCO[C@@H]2O[C@H](CF)[C@@H](O)[C@H](O)[C@H]2O)nn1)C(=O)O (H-RGDC(X2)-OH)
23.5 | N=C(N)NCCC[C@H](N)C(=O)NCC(=O)N[C@@H](CC(=O)O)C(=O)N[C@@H](CSCc1cn(CCO[C@H]2O[C@H](CF)[C@@H](O)[C@H](O)[C@@H]2O)nn1)C(=O)O (H-RGDC(X5)-OH)
76.5 | N=C(N)NCCC[C@H](N)C(=O)NCC(=O)N[C@@H](CC(=O)O)C(=O)N[C@@H](CSCc1cn(C[C@H]2O[C@H](O[C@H]3O[C@H](Cn4cc(CSC[C@H](NC(=O)[C@H](CC(=O)O)NC(=O)CNC(=O)[C@@H](N)CCCNC(=N)N)C(=O)O)nn4)[C@@H](O)[C@H](O)[C@H]3O)[C@@H](O)[C@@H](O)[C@@H]2O)nn1)C(=O)O
148 | N=C(N)NCCC[C@@H]1NC(=O)[C@H](CSCc2cn(CCO[C@@H]3O[C@H](CF)[C@@H](O)[C@H](O)[C@H]3O)nn2)NC(=O)[C@H](Cc2ccccc2)NC(=O)[C@H](CC(=O)O)NC(=O)CNC1=O
319 | NC(N)=NCCC[C@H](N)C(=O)NCC(=O)N[C@@H](CC(=O)O)C(=O)O
72 | CC(C)[C@@H]1NC(=O)[C@H](Cc2ccccc2)NC(=O)[C@H](CC(=O)O)NC(=O)CNC(=O)[C@H](CCCNC(=N)N)NC1=O
44 | N=C(N)NCCC[C@H](N)C(=O)NCC(=O)N[C@@H](CC(=O)O)C(=O)N[C@@H](CSCc1cn(CCO[C@@H]2O[C@H](CO)[C@@H](O)[C@H](O)[C@H]2O)nn1)C(=O)O (H-RGDC(X4)-OH)
322 | NC(N)=NCCC[C@H](N)C(=O)NCC(=O)N[C@@H](CC(=O)O)C(=O)N[C@@H](CS)C(=O)O (H-RGDC-OH)
65 | N=C(N)NCCC[C@@H]1NC(=O)[C@H](CS)NC(=O)[C@H](Cc2ccccc2)NC(=O)[C@H](CC(=O)O)NC(=O)CNC1=O (cyclo(RGDFC))
47.6 | N=C(N)NCCC[C@H](N)C(=O)NCC(=O)N[C@@H](CC(=O)O)C(=O)N[C@@H](CSCc1cn(CCO[C@H]2O[C@H](CO)[C@@H](O)[C@H](O)[C@@H]2O)nn1)C(=O)O (H-RGDC(X3)-OH)
